In patent US11005049B2, “Metal complexes” (priority 2013, dated 2021):
Where “and” joins values, the source holds several entries; their conditions need not be identical. Equal values may be shown once. Read-outs that look alike come from different tables or passages of the source.

How the values were obtained:
[1] = system: Salmonella typhimurium strain TA98; experiment: standardised AMES test, strain TA98; format: cell-based
Text: (§1) The solvent used is DMSO (dimethyl sulfoxide).

[2] = system: Salmonella typhimurium; strains TA98, TA100 and TA102; experiment: standardised AMES test, overall mutagenicity finding; format: cell-based
Text: as §1

[3] = system: Salmonella typhimurium strain TA100
Procedure: Compounds V1 and E2 are subjected to a standardised AMES test (bacteria: Salmonella typhimurium; strains TA98, TA100 and TA102). […] The test is carried out by the person skilled in the art employing standard methods which are well known in the prior art. The solvent used is DMSO (dimethyl sulfoxide).
The test is carried out both without and also with metabolic activation using an S9 mix.

[4] = system: Salmonella typhimurium strain TA102; experiment: standardised AMES test, strain TA102; format: cell-based
[5] = metabolic activation using S9 mix, 5 μg/plate
[6] = metabolic activation using S9 mix, 15.8 μg/plate
[7] = metabolic activation using S9 mix, 50 μg/plate
[8] = metabolic activation using S9 mix, 158 μg/plate
[9] = metabolic activation using S9 mix, 500 μg/plate
[10] = metabolic activation using S9 mix, 1580 μg/plate
[11] = metabolic activation using S9 mix, 5000 μg/plate
[12] = no metabolic activation, 5 μg/plate
[13] = no metabolic activation, 15.8 μg/plate
[14] = no metabolic activation, 50 μg/plate
[15] = no metabolic activation, 158 μg/plate
[16] = no metabolic activation, 500 μg/plate
[17] = no metabolic activation, 1580 μg/plate
[18] = no metabolic activation, 5000 μg/plate

Question: What does the source list for `CC(C)(C)c1ccc2cccc(O)c2n1.[Li]` [Compound E2, lithium 2-tert-butyl-8-hydroxyquinoline]?
Answer: Revertants/plate (mean ± SD) TA98 [1, 5]: 24 ± 6 Revertants/plate; Revertants/plate (mean ± SD) TA98 [1, 6]: 30 ± 2 Revertants/plate; Revertants/plate (mean ± SD) TA98 [1, 7]: 33 ± 4 Revertants/plate; Revertants/plate (mean ± SD) TA98 [1, 8]: 30 ± 3^S Revertants/plate; Revertants/plate (mean ± SD) TA98 [1, 9]: 25 ± 7^SB Revertants/plate; Revertants/plate (mean ± SD) TA98 [1, 10]: 18 ± 5^SB Revertants/plate; Revertants/plate (mean ± SD) TA98 [1, 11]: 13 ± 1^SE Revertants/plate; Revertants/plate (mean ± SD) TA98 [1, 12]: 23 ± 11 Revertants/plate; Revertants/plate (mean ± SD) TA98 [1, 13]: 29 ± 3 Revertants/plate; Revertants/plate (mean ± SD) TA98 [1, 14]: 18 ± 6 Revertants/plate; Revertants/plate (mean ± SD) TA98 [1, 15]: 20 ± 6^S Revertants/plate; Revertants/plate (mean ± SD) TA98 [1, 16]: 14 ± 8^SB Revertants/plate; Revertants/plate (mean ± SD) TA98 [1, 17]: 10 ± 4^SB Revertants/plate; Revertants/plate (mean ± SD) TA98 [1, 18]: 17 ± 6^SE Revertants/plate; mutagenic effect in AMES test ([2]; both without and with metabolic activation using an S9 mix): No mutagenic effect; Revertants/plate (mean ± SD) TA100 [3, 5]: 199 ± 4 Revertants/plate; Revertants/plate (mean ± SD) TA100 [3, 6]: 132 ± 11 Revertants/plate; Revertants/plate (mean ± SD) TA100 [3, 7]: 143 ± 8 Revertants/plate; Revertants/plate (mean ± SD) TA100 [3, 8]: 147 ± 8^S Revertants/plate; Revertants/plate (mean ± SD) TA100 [3, 9]: 108 ± 1^SB Revertants/plate; Revertants/plate (mean ± SD) TA100 [3, 10]: 57 ± 16 Revertants/plate; Revertants/plate (mean ± SD) TA100 [3, 11]: 4 ± 3 Revertants/plate; Revertants/plate (mean ± SD) TA100 [3, 12]: 142 ± 25 Revertants/plate; Revertants/plate (mean ± SD) TA100 [3, 13]: 133 ± 8 Revertants/plate; Revertants/plate (mean ± SD) TA100 [3, 14]: 104 ± 12 Revertants/plate; Revertants/plate (mean ± SD) TA100 [3, 15]: 103 ± 1^S Revertants/plate; Revertants/plate (mean ± SD) TA100 [3, 16]: 62 ± 17^SB Revertants/plate; Revertants/plate (mean ± SD) TA100 [3, 17]: 41 ± 2 Revertants/plate; Revertants/plate (mean ± SD) TA100 [3, 18]: 7 ± 3 Revertants/plate; Revertants/plate (mean ± SD) TA102 [4, 5]: 302 ± 18 Revertants/plate; Revertants/plate (mean ± SD) TA102 [4, 6]: 255 ± 8 Revertants/plate; Revertants/plate (mean ± SD) TA102 [4, 7]: 245 ± 22 Revertants/plate; Revertants/plate (mean ± SD) TA102 [4, 8]: 142 ± 22^S Revertants/plate; Revertants/plate (mean ± SD) TA102 [4, 9]: 89 ± 11^SB Revertants/plate; Revertants/plate (mean ± SD) TA102 [4, 10]: 62 ± 3^SB Revertants/plate; Revertants/plate (mean ± SD) TA102 [4, 11]: 37 ± 1^SE Revertants/plate; Revertants/plate (mean ± SD) TA102 [4, 12]: 224 ± 6 Revertants/plate; Revertants/plate (mean ± SD) TA102 [4, 13]: 217 ± 41 Revertants/plate; Revertants/plate (mean ± SD) TA102 [4, 14]: 237 ± 11 Revertants/plate; Revertants/plate (mean ± SD) TA102 [4, 15]: 180 ± 11^S Revertants/plate; Revertants/plate (mean ± SD) TA102 [4, 16]: 124 ± 1^SB Revertants/plate; Revertants/plate (mean ± SD) TA102 [4, 17]: 51 ± 18^SB Revertants/plate; Revertants/plate (mean ± SD) TA102 [4, 18]: 25 ± 1^SE Revertants/plate

Question: With `Oc1cccc2cccnc12.[Li]` [Liq, lithium 8-hydroxyquinoline, reference compound] as the compound, how does the “Revertants/plate (mean ± SD) TA98” value [1, 5] read?
Answer: Its value is 31 ± 11 Revertants/plate.

Question: And the “Revertants/plate (mean ± SD) TA98” value [1, 6]?
Answer: The value was 40 ± 2 Revertants/plate.

Question: What about the “Revertants/plate (mean ± SD) TA98” value [1, 7] of the same compound?
Answer: The value was 87 ± 1 Revertants/plate.

Question: What about the “Revertants/plate (mean ± SD) TA98” value [1, 8] of the same compound?
Answer: Its value is 100 ± 4 Revertants/plate.

Question: And the “Revertants/plate (mean ± SD) TA98” value [1, 12]?
Answer: The value was 23 ± 2 Revertants/plate.

Question: What about the “Revertants/plate (mean ± SD) TA98” value [1, 13] of the same compound?
Answer: The value was 20 ± 4 Revertants/plate.

Question: What about the “Revertants/plate (mean ± SD) TA98” value [1, 14] of the same compound?
Answer: Its value is 22 ± 1 Revertants/plate.

Question: What about the “mutagenicity in AMES test” value ([2]; all three bacteria strains, in the presence of metabolic activation) of the same compound?
Answer: The value was “significant mutagenicity”.

Question: What about the “Revertants/plate (mean ± SD) TA102” value [4, 5] of the same compound?
Answer: The value was 559 ± 8 Revertants/plate.

Question: What about the “Revertants/plate (mean ± SD) TA102” value [4, 6] of the same compound?
Answer: Its value is 697 ± 8 Revertants/plate.

Question: What about the “Revertants/plate (mean ± SD) TA102” value [4, 7] of the same compound?
Answer: The value was 1469 ± 27 Revertants/plate.

Question: And the “Revertants/plate (mean ± SD) TA102” value [4, 8]?
Answer: Its value is 911 ± 269 Revertants/plate.

Question: What about the “Revertants/plate (mean ± SD) TA102” value [4, 12] of the same compound?
Answer: The value was 344 ± 33 Revertants/plate.

Question: And the “Revertants/plate (mean ± SD) TA102” value [4, 13]?
Answer: The value was 270 ± 30 Revertants/plate.

Question: And the “Revertants/plate (mean ± SD) TA102” value [4, 14]?
Answer: The value was 257 ± 59 Revertants/plate.

Question: How did the “Revertants/plate (mean ± SD) TA100” value ([3]; no metabolic activation, 2 μg/plate, reference) turn out when `[N-]=[N+]=[N-]` [NaN3, sodium azide, reference compound] was run?
Answer: Its value is 1090 ± 35 Revertants/plate and 743 ± 52 Revertants/plate.
